# According to patent publication US5869494A, “Uses for barbituric acid analogs” (priority 1997, dated 1999):
# Like-named read-outs stand apart in the source and are kept apart here.
# Tests used:
# [1] = tested on: human breast cancer MCF-7 cells; experiment: Inhibition of clonogenic growth of breast cancer cells; type: cell-based; conditions: for No. of Colonies (Mean ± S.D.): control 158.5 ± 12.2
# Method: After additional incubation periods of 24 h and 48 h, cells were washed to remove the drug and were allowed to grow at 37° C. in a CO2 incubator. After 10 days, colonies consisting of 50 or more cells were counted.
# [2] = tested on: human prostate tumors; experiment: Established human prostate tumors implanted in mice, intramuscular treatment; type: in vivo; conditions: 100 mg/kg intramuscular, alternate days, after 5 weeks
# Method: Similar experiments were carried out where implanted human prostate tumors (2×2 mm) were allowed to become established. Eight days later, the tumor size was ≈5×5 mm. Treatment was initiated which consisted of intramuscular injections of C1 (100 mg/kg) given on alternate days. After 5 weeks of treatment, tumors were not detectable by palpation in 2 of 3 animals. […] Untreated control mice (n=3), had tumors at 5 weeks of average size of 10×9mm.
# [3] = tested on: human fibrosarcoma HT-1080 cells; experiment: Effect on human fibrosarcoma HT-1080 cells (trypan blue dye exclusion); type: cell-based; conditions: for viability at 25 µg/mL / viability at 50 µg/mL / viability at 100 µg/mL / viability at 150 µg/mL: HT-1080, read-out: Percent survival; for viability at 25 µg/mL: 25 μg/ml; for viability at 50 µg/mL: 50 μg/ml
# Method: Human fibrosarcoma cells were cultured in Minimum essential medium (Eagle) with non-essential amino acids and Earls balanced salt solution supplemented with 10% heat-inactivated fetal bovine serum. Cells (5×10^3 in 0.5 ml of growth medium) were plated in 16 well plates and incubated at 37° C. in a humidified atmosphere of 5% CO2 in air for 24 h. Cells were then treated with different doses of C1. Control wells received vehicle only (<0.5% ethanol in saline). After further incubation periods of 24 and 48 h, the viability of cells was determined by trypan blue dye exclusion method.
# [4] = In vivo toxicity, single escalating oral dose; conditions: BALB/c mice
# Method: A single escalating dose of the test drag is a procedure where a dose is administered to a group of mice (in this case n=3). If toxicity is not elicited, the next higher dose is given to a fresh group of mice and so on until toxicity is observed.
# [5] = In vivo toxicity, repeat oral dose; set-up: species or system BALB/c mice; conditions: for mortality: group of three mice
# Method: In preliminary repeat dose studies, a suspension of C1 in polyethylene glycol (C1 is mixed with a 2.5% solution of polyethylene glycol and homogenized in a sterile dounce homogenizer until it flows freely through a 22×11/2" with 11/4 mm ball feeding needle) was administered orally to a group of three BALB/c mice.
# [6] = Alleviation of depression in HIV-1 positive subjects; type: in vivo, human; conditions: 4.3 mg/kg for 15 days; three HIV-1 positive subjects
# [7] = tested on: 786-0; experiment: NCI tumor cell line screen (SRB assay); type: cell-based; set-up: activity: dose or concentration left out as unconfirmed; conditions: Homo sapiens, read-out: PERCENT GROWTH
# [8] = tested on: A498; experiment: NCI tumor cell line screen (SRB assay); type: cell-based; set-up: activity: dose or concentration left out as unconfirmed; conditions: Homo sapiens, read-out: PERCENT GROWTH
# How it was run: (§1)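 Dye binding by fixed cells measured: 0.4% (wt/vol) SRB for 30 min, acid washes, air drying, then 5 min Tris base elution. Absorbance taken at 564 nm for sensitivity, otherwise around 490-530 nm.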
# [9] = tested on: M14; experiment: NCI tumor cell line screen (SRB assay); type: cell-based; set-up: activity: dose or concentration left out as unconfirmed; conditions: Homo sapiens, read-out: PERCENT GROWTH
# How it was run: as §1
# [10] = tested on: OVCAR-4; experiment: NCI tumor cell line screen (SRB assay); type: cell-based; set-up: activity: dose or concentration left out as unconfirmed; conditions: Homo sapiens, read-out: PERCENT GROWTH
# How it was run: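 Optical density of solubilized sulforhodamine B gives the cell mass readout, taken at 564 nm or at suboptimal wavelengths near 490-530 nm so readings stay under 1.8 OD units. Cells are TCA-fixed, stained 30 min with 0.4% SRB and washed with 1% acetic acid.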
# [11] = Homo sapiens, 24 h, control 92.3 ± 3.1
# [12] = Homo sapiens, 48 h, control 92.4 ± 3.1
smiles,measurement,setting,value
"CCCCN1C(=O)CC(=O)N(CCCC)C1=S [Compound C1, 4,6(1H, 5H)-pyrimidinedione, 1,3-dibutyldihydro-2-thioxo]",No. of Colonies (Mean ± S.D.),"[1]; 20 μg/ml, 24 hr",24.5 ± 7.8
same,No. of Colonies (Mean ± S.D.),"[1]; 20 μg/ml, 48 hr",24.5 ± 6.1
same,No. of Colonies (Mean ± S.D.),"[1]; 40 μg/ml, 24 hr",13.5 ± 5.1
same,No. of Colonies (Mean ± S.D.),"[1]; 40 μg/ml, 48 hr",11.7 ± 1.2
same,No. of Colonies (Mean ± S.D.),"[1]; 80 μg/ml, 24 hr",3.0 ± 2.2
same,No. of Colonies (Mean ± S.D.),"[1]; 80 μg/ml, 48 hr",0 ± 0
same,inhibition at 20 µg/mL,"[1]; Homo sapiens, MCF7, 20 μg/ml, read-out: Percent Reduction (of colonies)",84.5%
same,inhibition at 40 µg/mL,"[1]; Homo sapiens, MCF7, 40 μg/ml, read-out: Percent Reduction (of colonies)",92.6%
same,inhibition at 80 µg/mL,"[1]; Homo sapiens, MCF7, 80 μg/ml, read-out: Percent Reduction (of colonies)",100%
same,tumor cell clonogenic growth,[1]; under the conditions employed,virtually complete elimination of tumor cell clonogenic growth
same,tumors not detectable by palpation,[2],2 of 3
same,fibrosarcoma cells killed,"[3]; 25 μg/ml (lowest dose), 48 h",virtually all fibrosarcoma cells were killed
same,fibrosarcoma cells killed,"[3]; 100 μg/ml, 24 h",Virtually all fibrosarcoma cells were killed
same,fibrosarcoma cells killed,"[3]; 150 μg/ml, 24 h",Virtually all fibrosarcoma cells were killed
same,cytotoxicity at 50 µg/mL,"[3]; Homo sapiens, HT-1080, 24 h, read-out: cells killed",> 92%
same,viability at 25 µg/mL,[3]; [11],0.03 ± 0.03%
same,viability at 25 µg/mL,[3]; [12],0%
same,viability at 50 µg/mL,[3]; [11],0.03 ± 0.03%
same,viability at 50 µg/mL,[3]; [12],0%
same,viability at 100 µg/mL,"[3]; Homo sapiens, 100 μg/ml, 24 h, control 92.3 ± 3.1",0%
same,viability at 100 µg/mL,"[3]; Homo sapiens, 100 μg/ml, 48 h, control 92.4 ± 3.1",0%
same,viability at 150 µg/mL,"[3]; Homo sapiens, 150 μg/ml, 24 h, control 92.3 ± 3.1",0%
same,viability at 150 µg/mL,"[3]; Homo sapiens, 150 μg/ml, 48 h, control 92.4 ± 3.1",0%
same,lethal single dose,[4],2000 mg/kg
same,MTD,"[4]; mouse, in vivo, read-out: single dose easily tolerated",≥ 1200 mg/kg
same,tolerability and survival,"[5]; 400 mg/kg daily oral, 10 days",easily tolerated and all animals survived the treatment
same,mortality,[5]; 800 mg/kg daily oral,one animal died on day three and another died on day 10
same,mortality,[5]; 1000 mg/kg daily oral,"one animal died on day 2, another on day 5 and a third animal died on day 10"
same,mortality,[5]; 1200 mg/kg daily oral,all animals died on day 3
same,symptoms reported by subjects,[6],"alleviation from lethargy, depression and an increased appetite, feeling of being happy, and desire to live"
same,activity,[7]; 10^-3.0 Molar,-100%
same,activity at 100 µM,[7]; 10^-4.0 Molar,87%
same,activity at 10 µM,[7]; 10^-5.0 Molar,115%
same,activity at 1 µM,[7]; 10^-6.0 Molar,82%
same,activity,[8]; 10^-3.0 Molar,-81%
same,activity at 100 µM,[8]; 10^-4.0 Molar,62%
same,activity at 10 µM,[8]; 10^-5.0 Molar,96%
same,activity at 1 µM,[8]; 10^-6.0 Molar,105%
same,activity at 0.1 µM,[8]; 10^-7.0 Molar,99%
same,activity,[9]; 10^-3.0 Molar,-100%
same,activity at 100 µM,[9]; 10^-4.0 Molar,94%
same,activity at 10 µM,[9]; 10^-5.0 Molar,105%
same,activity at 1 µM,[9]; 10^-6.0 Molar,100%
same,activity at 0.1 µM,[9]; 10^-7.0 Molar,106%
same,activity,[10]; 10^-3.0 Molar,-75%
same,activity at 100 µM,[10]; 10^-4.0 Molar,66%
same,activity at 10 µM,[10]; 10^-5.0 Molar,105%
same,activity at 1 µM,[10]; 10^-6.0 Molar,104%
same,activity at 0.1 µM,[10]; 10^-7.0 Molar,101%
